According to patent publication US12264156B2, “Compounds and pharmaceutical compositions thereof for the treatment of diseases” (GALAPAGOS NV, priority 2018, dated 2025):

What was measured:
SIK3 = target: T1, SIK3 (Homo sapiens, UniProt Q9Y2K2); assay: ADP-Glo kinase assay, SIK3; assay type: biochemical; conditions: ADP-Glo SIK kinase assay
T1 construct: purchased SignalChem S12-11G-100
Summary of the method: (§1)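 ADP-Glo luminescent assay of ADP formed by SIK2 or SIK3 with substrate after ATP addition, 120 min at RT. Remaining ATP depleted 40 min, then ADP converted to ATP and read by luciferase luminescence after 30 min. Controls: 1% DMSO and 10 μM staurosporine (final).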

[1] = test system: LPS-induced TNFα in monocyte-derived macrophages (MdM); assay: MdM assay: LPS-triggered TNFα (ELISA); assay type: cell-based, human; conditions: Homo sapiens, Macrophage, 20 h, monocyte-derived macrophages, LPS 200 ng/mL, supernatant after 20 h; read-out: TNFα EC50
Procedure: This assay evaluates illustrative compounds of the invention for their inhibition of LPS-induced TNFα and LPS triggered IL-10 secretion in monocyte-derived macrophages.
PBMCs are isolated from human blood samples (buffycoats). The buffy coat is aseptically transferred into a 50 mL Falcon tube, and diluted 1/2 in PBS. Falcon tubes are filled with 20 mL Lymphoprep™, on top of which 25 mL of the buffy coat is carefully added, tubes are centrifuged for 35 min at 400 g in temperature controlled centrifuge, without brake, at 25° C. PBMCs are aspirated from the white interface layer between sample and Lymphoprep™. PBMCs are washed five times in PBS.
PBMCs are centrifuged at 300×g for 10 min and resuspended at a density of 1.0*10^7 cells/80 μL Miltenyi buffer (PBS, pH 7.4, 1% FBS, 2 mM EDTA).
Starting from this point of the protocol all steps are performed on ice. 20 μL of CD14+ micro-beads are added per 1.0*10^7 cells, the tube is mixed and incubated for 15 min in the fridge at 4° C. Cell suspension volume is adjusted to total volume of 100 mL using Miltenyi buffer, mixed gently and subsequently centrifuged for 10 min at 300×g. Supernantant is discarded and cell pellet is resuspended in 12 mL of Miltenyi buffer.
Four LS columns are placed in the MACS Separator (magnet) from Miltenyi Biotec, and are prewet by rinsing with 3 mL of MACS buffer per column. Three mL of cell suspension is added onto the column (max 1*10^8 of labelled cells/column), and columns are subsequently washed 3 times with 3 mL of Miltenyi buffer.
The columns are removed from the magnets, and 5 mL of Miltenyi buffer are added to the column to flush out the CD14+ fraction by pushing the plunger into the column. The flushed fractions are collected in a fresh 50 mL Falcon and volume is adjusted to 30 mL using Miltenyi buffer, cells are centrifuged for 10 min at 300×g. The obtained cell pellet is resuspended in 10 mL RPMI w/o FBS, and cell density is determined using a hematologic analyser (Sysmex XS-500i).
On day 10, MdMs are triggered and compound is added.
A compound dilution plate is made in 100% DMSO by 3-fold dilution of 10 mM stock solution. An intermediate dilution plate (10× final concentration) is made by diluting the compound dilution plate 50-fold in RPMI medium.
Medium is carefully removed from cell plates using multichannel pipette, and replaced by 80 μL fresh medium. 10 μL of the 10× final concentration compound is added to the cells and incubated for 1 hour at 37° C. before addition of trigger. No trigger conditions/trigger conditions are spiked with equal final DMSO concentrations of 0.2% DMSO. 10 μL of 10×LPS (final conc. 200 ng/mL) solution are added to all wells except for the ‘no trigger wells’ where 10 μL medium is added. Supernatant is collected after 2 h (IL-10 determination) and after 20 h (TNFα determination) of LPS triggering.
The plate is then washed once with PBST (PBS+0.05% Tween20) and once with PBS followed by the addition of 100 μL of blocking buffer (1% Bovine Serum Albumin (BSA)−5% Sucrose) and plates are sealed and incubated for at least 4 h at RT. After washing the plate once with PBST and once with PBS, 40 μL of standard or sample are added (TNFα standard curve is prepared using a 1/2 serial dilution starting from […]; dilutions are made in dilution buffer (PBS+1% BSA)). Plates are washed twice with PBST, and once with PBS, after which 35 μL of the detection antibody is added (final concentration 0.25 μg/mL diluted in dilution buffer) and plates are incubated for at least 2 h at RT. Plates are washed twice with PBST, and once with PBS, where after 35 μL of Strep-HRP conjugate (0.5 μg/mL final concentration diluted in dilution buffer) is added. Plates are incubated in the dark, at RT for at least 45 min but no longer than 1 hour. Plates are washed twice with PBST, and once with PBS.

SIK1 = target: T2, SIK1 (Homo sapiens, UniProt P57059); assay: ADP-Glo kinase assay, SIK1; assay type: biochemical; conditions: ADP-Glo SIK kinase assay
T2 construct: purchased Carna Biosciences 02-131
T2 sequence (P57059 whole entry): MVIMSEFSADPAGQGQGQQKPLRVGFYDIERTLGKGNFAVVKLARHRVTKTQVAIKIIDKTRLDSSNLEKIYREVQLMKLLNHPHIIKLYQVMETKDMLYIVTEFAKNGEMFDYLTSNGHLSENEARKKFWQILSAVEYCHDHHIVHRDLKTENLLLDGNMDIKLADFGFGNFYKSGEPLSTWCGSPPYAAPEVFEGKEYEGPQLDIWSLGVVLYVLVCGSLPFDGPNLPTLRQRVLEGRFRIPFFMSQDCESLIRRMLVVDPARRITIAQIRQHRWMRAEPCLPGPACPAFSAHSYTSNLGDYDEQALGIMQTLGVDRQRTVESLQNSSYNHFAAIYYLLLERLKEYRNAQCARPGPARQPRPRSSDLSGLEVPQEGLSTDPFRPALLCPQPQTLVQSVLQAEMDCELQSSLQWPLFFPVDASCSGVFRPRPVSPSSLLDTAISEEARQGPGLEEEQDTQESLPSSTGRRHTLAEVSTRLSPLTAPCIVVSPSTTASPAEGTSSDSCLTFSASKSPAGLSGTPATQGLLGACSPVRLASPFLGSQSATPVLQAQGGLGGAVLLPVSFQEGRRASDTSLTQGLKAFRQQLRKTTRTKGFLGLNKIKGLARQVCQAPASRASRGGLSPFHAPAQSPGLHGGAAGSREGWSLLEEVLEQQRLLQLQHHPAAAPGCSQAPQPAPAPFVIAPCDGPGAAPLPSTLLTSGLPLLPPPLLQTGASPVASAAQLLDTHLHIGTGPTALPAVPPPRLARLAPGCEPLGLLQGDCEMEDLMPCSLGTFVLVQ
Summary of the method: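 Wells with 1% DMSO or 10 μM staurosporine (final) define the control window. The kinase reaction with substrate and ATP runs 120 min at RT, followed by ADP-Glo detection: ATP depletion (40 min) and ADP-derived luminescence (30 min).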

SIK2 = target: T3, SIK2 (Homo sapiens, UniProt Q9H0K1); assay: ADP-Glo kinase assay, SIK2; assay type: biochemical; conditions: ADP-Glo SIK kinase assay
T3 construct: purchased ThermoFisher Scientific PV4792
T3 sequence (Q9H0K1 whole entry): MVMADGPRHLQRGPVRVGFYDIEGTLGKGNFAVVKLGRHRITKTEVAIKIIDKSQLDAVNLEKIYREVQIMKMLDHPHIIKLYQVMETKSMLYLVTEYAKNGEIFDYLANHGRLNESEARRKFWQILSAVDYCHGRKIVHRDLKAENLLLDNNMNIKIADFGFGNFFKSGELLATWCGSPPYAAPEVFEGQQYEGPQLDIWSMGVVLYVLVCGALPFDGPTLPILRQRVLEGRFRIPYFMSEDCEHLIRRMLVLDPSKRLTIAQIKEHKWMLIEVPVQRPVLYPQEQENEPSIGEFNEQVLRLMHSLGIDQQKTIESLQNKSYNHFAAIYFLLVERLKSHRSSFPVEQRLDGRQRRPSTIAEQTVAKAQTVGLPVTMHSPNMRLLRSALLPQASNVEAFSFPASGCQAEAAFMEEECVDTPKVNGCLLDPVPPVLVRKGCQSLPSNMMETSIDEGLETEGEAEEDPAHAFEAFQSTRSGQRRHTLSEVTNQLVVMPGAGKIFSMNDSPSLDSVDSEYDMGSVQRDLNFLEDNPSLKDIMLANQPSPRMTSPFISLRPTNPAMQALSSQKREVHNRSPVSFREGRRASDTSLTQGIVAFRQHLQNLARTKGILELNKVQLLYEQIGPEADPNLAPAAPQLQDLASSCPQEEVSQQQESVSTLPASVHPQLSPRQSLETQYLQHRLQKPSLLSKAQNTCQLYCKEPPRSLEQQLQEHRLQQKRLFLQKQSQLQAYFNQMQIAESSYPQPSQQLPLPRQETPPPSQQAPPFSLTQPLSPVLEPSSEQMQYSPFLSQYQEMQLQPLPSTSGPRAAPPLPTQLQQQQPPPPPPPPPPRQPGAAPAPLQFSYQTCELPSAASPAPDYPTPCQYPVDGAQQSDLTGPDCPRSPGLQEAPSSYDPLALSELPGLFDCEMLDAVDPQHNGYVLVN
Summary of the method: as §1

T1 sequence (Q9Y2K2 whole entry): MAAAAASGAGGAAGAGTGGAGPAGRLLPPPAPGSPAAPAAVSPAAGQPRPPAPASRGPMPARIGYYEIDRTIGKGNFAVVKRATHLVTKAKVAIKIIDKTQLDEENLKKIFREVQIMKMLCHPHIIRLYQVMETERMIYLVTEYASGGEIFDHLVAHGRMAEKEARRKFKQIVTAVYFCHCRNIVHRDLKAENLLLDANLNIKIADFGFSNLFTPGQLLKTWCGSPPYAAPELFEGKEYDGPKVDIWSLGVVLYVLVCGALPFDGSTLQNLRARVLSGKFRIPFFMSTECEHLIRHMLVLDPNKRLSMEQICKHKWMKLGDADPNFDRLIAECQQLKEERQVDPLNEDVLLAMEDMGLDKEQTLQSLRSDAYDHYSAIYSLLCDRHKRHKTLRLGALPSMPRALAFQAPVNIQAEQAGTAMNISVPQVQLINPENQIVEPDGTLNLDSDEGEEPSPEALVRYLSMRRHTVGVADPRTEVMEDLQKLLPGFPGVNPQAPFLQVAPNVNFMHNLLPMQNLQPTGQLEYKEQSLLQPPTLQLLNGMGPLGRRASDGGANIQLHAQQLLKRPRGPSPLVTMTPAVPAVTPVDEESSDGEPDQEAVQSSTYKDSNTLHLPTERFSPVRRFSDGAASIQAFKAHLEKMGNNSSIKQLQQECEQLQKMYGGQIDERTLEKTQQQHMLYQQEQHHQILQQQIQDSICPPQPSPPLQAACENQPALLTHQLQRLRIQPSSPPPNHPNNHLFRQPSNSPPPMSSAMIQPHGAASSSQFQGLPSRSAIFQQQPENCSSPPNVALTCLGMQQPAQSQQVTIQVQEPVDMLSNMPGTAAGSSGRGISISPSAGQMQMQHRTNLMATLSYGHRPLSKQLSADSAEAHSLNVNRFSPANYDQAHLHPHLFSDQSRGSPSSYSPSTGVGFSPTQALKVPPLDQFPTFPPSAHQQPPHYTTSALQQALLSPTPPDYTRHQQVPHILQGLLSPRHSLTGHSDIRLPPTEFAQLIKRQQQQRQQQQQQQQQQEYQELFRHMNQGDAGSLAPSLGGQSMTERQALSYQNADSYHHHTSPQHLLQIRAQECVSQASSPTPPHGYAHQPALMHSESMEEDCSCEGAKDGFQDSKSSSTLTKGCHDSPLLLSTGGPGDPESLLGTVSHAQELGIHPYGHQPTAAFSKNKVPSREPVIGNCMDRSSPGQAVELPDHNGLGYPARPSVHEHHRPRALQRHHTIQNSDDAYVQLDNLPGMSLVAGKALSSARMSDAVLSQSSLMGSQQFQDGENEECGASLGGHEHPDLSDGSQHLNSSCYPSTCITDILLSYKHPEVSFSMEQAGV

SMILES | IC50 (SIK3) [nM] | EC50 [1] [nM] | IC50 (SIK1) [nM] | IC50 (SIK2) [nM]
COc1cc(-c2cnc3cc(OC[C@@H]4CCCN4C)ccn23)cc(OC(F)F)c1C(=O)NC1CC1 [compound 79, N-cyclopropyl-2-(difluoromethoxy)-6-methoxy-4-[7-[[(2S)-1-methylpyrrolidin-2-yl]methoxy]imidazo[1,2-a]pyridin-3-yl]benzamide] | 0.01 to 10 | 100 to 1000 | 10 to 100 | 0.01 to 10
COc1cc(-c2cnc3cc(OCc4ccnn4C)ccn23)cc2c1C(=O)N(CC(F)(F)F)CC2 [compound 84, 8-methoxy-6-[7-[(2-methylpyrazol-3-yl)methoxy]imidazo[1,2-a]pyridin-3-yl]-2-(2,2,2-trifluoroethyl)-3,4-dihydroisoquinolin-1-one] | 0.01 to 10 | 100 to 1000 | 100 to 500 | 10 to 100
COc1cc(-c2cnc3cc(OCc4nccn4C)ccn23)cc(OC(F)F)c1C(=O)NC1CC1 [compound 110, N-cyclopropyl-2-(difluoromethoxy)-6-methoxy-4-[7-[(1-methylimidazol-2-yl)methoxy]imidazo[1,2-a]pyridin-3-yl]benzamide] | 0.01 to 10 | 100 to 1000 | 100 to 500 | 0.01 to 10
COc1cc(-c2cnc3cc(OCC(C)N)ccn23)cc(OC(F)F)c1C(=O)NC1CC1 (centres unmarked) [compound 138, 4-[7-(2-aminopropoxy)imidazo [1,2-a]pyridin-3-yl]-N-cyclopropyl-2-(difluoromethoxy)-6-methoxy-benzamide] | 0.01 to 10 | 1000 to 5000 | 10 to 100 | 0.01 to 10
COc1cc(-c2cnc3cc(OC[C@@H]4CCCCN4C)ccn23)cc(OC(F)F)c1C(=O)NC1CC1 [compound 139, N-cyclopropyl-2-(difluoromethoxy)-6-methoxy-4-[7-[[(2S)-1-methyl-2-piperidyl]methoxy]imidazo [1,2-a]pyridin-3-yl]benzamide] | 0.01 to 10 | 100 to 1000 | 100 to 500 | 0.01 to 10
CNc1cc(-c2cnc3cc(OCCN(C)C)ccn23)cc(OC(F)F)c1C(=O)NC1CC1 [compound 147, N-cyclopropyl-2-(difluoromethoxy)-4-[7-[2-(dimethylamino)ethoxy]imidazo[1,2-a]pyridin-3-yl]-6-(methylamino)benzamide] | 0.01 to 10 | 100 to 1000 | 10 to 100 | 0.01 to 10
COCC1CN(CCOc2ccn3c(-c4cc(OC)c(C(=O)NC5CC5)c(OC(F)F)c4)cnc3c2)CCO1 (centres unmarked) [compound 158, N-cyclopropyl-2-(difluoromethoxy)-6-methoxy-4-[7-[2-[2-(methoxymethyl)morpholin-4-yl]ethoxy]imidazo[1,2-a]pyridin-3-yl]benzamide] | 0.01 to 10 | 0.1 to 100 | 10 to 100 | 0.01 to 10
COc1cc(-c2cnc3cc(OCC4(C)CCCN4)ccn23)cc(OC(F)F)c1C(=O)NC1CC1 (centres unmarked) [compound 168, N-cyclopropyl-2-(difluoromethoxy)-6-methoxy-4-[7-[(2-methylpyrrolidin-2-yl)methoxy]imidazo[1,2-a]pyridin-3-yl]benzamide] | 0.01 to 10 | 100 to 1000 | 100 to 500 | 0.01 to 10

Further lines, results first:

IC50 (SIK3) [nM] | EC50 [1] [nM] | IC50 (SIK1) [nM] | IC50 (SIK2) [nM] | SMILES
0.01 to 10 | 0.1 to 100 | 10 to 100 | 0.01 to 10 | COc1cc(-c2cnc3cc(OCCCN4CCOCC4)ccn23)cc(OC(F)F)c1C(=O)NC1CC1 [compound 21, N-cyclopropyl-2-(difluoromethoxy)-6-methoxy-4-[7-(3-morpholinopropoxy)imidazo[1,2-a]pyridin-3-yl]benzamide]
0.01 to 10 | 0.1 to 100 | 10 to 100 | 0.01 to 10 | COc1cc(-c2cnc3cc(OCc4cnco4)ccn23)cc(OC(F)F)c1C(=O)NC1CC1 [compound 33, N-cyclopropyl-2-(difluoromethoxy)-6-methoxy-4-[7-(oxazol-5-ylmethoxy)imidazo[1,2-a]pyridin-3-yl]benzamide]
0.01 to 10 | 100 to 1000 | 10 to 100 | 0.01 to 10 | COc1cc(-c2cnc3cc(OCC4CCO4)ccn23)cc(OC(F)F)c1C(=O)NC1CC1 (centres unmarked) [compound 35, N-cyclopropyl-2-(difluoromethoxy)-6-methoxy-4-[7-(oxetan-2-ylmethoxy)imidazo[1,2-a]pyridin-3-yl]benzamide]
0.01 to 10 | 0.1 to 100 | 10 to 100 | 0.01 to 10 | COc1cc(-c2cnc3cc(OCC4CCCCO4)ccn23)cc(OC(F)F)c1C(=O)NC1CC1 (centres unmarked) [compound 48, N-cyclopropyl-2-(difluoromethoxy)-6-methoxy-4-[7-(tetrahydropyran-2-ylmethoxy)imidazo[1,2-a]pyridin-3-yl] benzamide]
0.01 to 10 | 100 to 1000 | 10 to 100 | 0.01 to 10 | COc1cc(-c2cnc3cc(OC[C@H]4COCCO4)ccn23)cc(OC(F)F)c1C(=O)NC1CC1 [compound 50, N-cyclopropyl-2-(difluoromethoxy)-4-[7-[[(2R)-1,4-dioxan-2-yl]methoxy]imidazo[1,2-a]pyridin-3-yl]-6-methoxy-benzamide]
0.01 to 10 | 100 to 1000 | 100 to 500 | 0.01 to 10 | COc1cc(-c2cnc3cc(OCCCN4CCOCC4)ccn23)cc2c1C(=O)N(CC(F)(F)F)CC2 [compound 55, 8-methoxy-6-[7-(3-morpholinopropoxy)imidazo[1,2-a]pyridin-3-yl]-2-(2,2,2-trifluoroethyl)-3,4-dihydro isoquinolin-1-one]
0.01 to 10 | 1000 to 5000 | 10 to 100 | 10 to 100 | COc1cc(-c2cnc3cc(OC4CC5CCC4C5)ccn23)cc(OC(F)F)c1C(=O)NC1CC1 (centres unmarked) [compound 58, N-cyclopropyl-2-(difluoromethoxy)-6-methoxy-4-(7-norbornan-2-yloxyimidazo[1,2-a]pyridin-3-yl)benzamide]
0.01 to 10 | 1000 to 5000 | > 500 | 0.01 to 10 | COc1cc(-c2cnc3cc(OCCN(C)C)ccn23)cc2c1C(=O)N(CC#N)CC2 [compound 67, 2-[6-[7-[2-(dimethylamino)ethoxy]imidazo[1,2-a]pyridin-3-yl]-8-methoxy-1-oxo-3,4-dihydroisoquinolin-2-yl]acetonitrile]
0.01 to 10 | 100 to 1000 | 100 to 500 | 0.01 to 10 | COc1cc(-c2cnc3cc(OCCN(C(C)C)C(C)C)ccn23)cc(OC(F)F)c1C(=O)NC1CC1 [compound 78, N-cyclopropyl-2-(difluoromethoxy)-4-[7-[2-(diisopropylamino)ethoxy]imidazo[1,2-a]pyridin-3-yl]-6-methoxy-benzamide]
